Assay results: PubChem BioAssay AID330 (DTP/NCI, 2004)
Several values for one entry are separate records, joined by “and”; a condition that tells them apart may be missing. Identical values can stand only once. Toxic doses and inconclusive results are not listed. The calls were made as follows: active = survival T/C of 150% or more; inactive = T/C below 125% in these data. Peptide text beside a SMILES is read from it. * marks the point of attachment. Cbz = O=C(OCc1ccccc1)*

System: P388 leukemia ip, CD2F1 mice, survival T/C
Assay: NCI In Vivo Anticancer Drug Screen. Data for tumor model P388 Leukemia (intraperitoneal) in CD2F1 (CDF1) mice
Conditions: endpoint: median survival time, higher = longer survival
Procedure, shortened: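 Mice carrying the transplanted tumor received test compound or vehicle. Survival was recorded in each group, and the value is the treated-group measurement divided by that of the vehicle-treated control group.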

[1] = dose: 60.0 mg/kg/injection, schedule: Q01DX005 (ip), vehicle: saline with Tween-80
[2] = dose: 120.0 mg/kg/injection, schedule: Q01DX005 (ip), vehicle: saline with Tween-80
[3] = dose: 240.0 mg/kg/injection, schedule: Q01DX005 (ip), vehicle: saline with Tween-80
[4] = dose: 60.0 mg/kg/injection, schedule: Q01DX005 (ip), vehicle: Klucel (hydroxypropylcellulose) (HPC)
[5] = dose: 120.0 mg/kg/injection, schedule: Q01DX005 (ip), vehicle: Klucel (hydroxypropylcellulose) (HPC)
[6] = dose: 50.0 mg/kg/injection, schedule: Q01DX009 (ip), vehicle: saline with Tween-80
[7] = dose: 100.0 mg/kg/injection, schedule: Q01DX009 (ip), vehicle: saline with Tween-80
[8] = dose: 200.0 mg/kg/injection, schedule: Q01DX009 (ip), vehicle: saline with Tween-80
[9] = dose: 50.0 mg/kg/injection, schedule: Q01DX005 (ip), vehicle: saline with Tween-80
[10] = dose: 100.0 mg/kg/injection, schedule: Q01DX005 (ip), vehicle: saline with Tween-80
[11] = dose: 200.0 mg/kg/injection, schedule: Q01DX005 (ip), vehicle: saline with Tween-80
[12] = dose: 50.0 mg/kg/injection, schedule: Q01DX005 (ip), vehicle: Klucel (hydroxypropylcellulose) (HPC)
[13] = dose: 100.0 mg/kg/injection, schedule: Q01DX005 (ip), vehicle: Klucel (hydroxypropylcellulose) (HPC)
[14] = dose: 200.0 mg/kg/injection, schedule: Q01DX005 (ip), vehicle: Klucel (hydroxypropylcellulose) (HPC)
[15] = dose: 50.0 mg/kg/injection, schedule: Q01DX009 (ip), vehicle: Klucel (hydroxypropylcellulose) (HPC)
[16] = dose: 100.0 mg/kg/injection, schedule: Q01DX009 (ip), vehicle: Klucel (hydroxypropylcellulose) (HPC)
[17] = dose: 25.0 mg/kg/injection, schedule: Q01DX005 (ip), vehicle: Klucel (hydroxypropylcellulose) (HPC)
[18] = dose: 100.0 mg/kg/injection, schedule: Q01DX001 (ip), vehicle: saline with Tween-80
[19] = dose: 200.0 mg/kg/injection, schedule: Q01DX001 (ip), vehicle: saline with Tween-80
[20] = dose: 400.0 mg/kg/injection, schedule: Q01DX001 (ip), vehicle: saline with Tween-80
[21] = dose: 200.0 mg/kg/injection, schedule: Q01DX009 (ip), vehicle: Klucel (hydroxypropylcellulose) (HPC)

Measured: T/C

CCOC(=O)N(NC(=O)c1ccc(N(CCCl)CCCl)cc1)C(C)=O
inactive: dose: 3.13 mg/kg/injection, schedule: Q01DX009 (ip), vehicle: other 103 % of control | dose: 6.25 mg/kg/injection, schedule: Q01DX009 (ip), vehicle: other 100 % of control | dose: 12.5 mg/kg/injection, schedule: Q01DX009 (ip), vehicle: other 101 % of control | dose: 25.0 mg/kg/injection, schedule: Q01DX009 (ip), vehicle: other 111 % of control | dose: 50.0 mg/kg/injection, schedule: Q01DX009 (ip), vehicle: other 111 % of control and 114 % of control | dose: 88.0 mg/kg/injection, schedule: Q01DX009 (ip), vehicle: other 110 % of control | dose: 133.0 mg/kg/injection, schedule: Q01DX009 (ip), vehicle: other 112 % of control

C=C(C)C(O)C#CCO[Si](c1ccccc1)(c1ccccc1)C(C)(C)C (stereo not drawn)
inactive: [1] 95 % of control | [2] 97 % of control | [3] 98 % of control

NC(CSCCNc1ccc([N+](=O)[O-])cc1[N+](=O)[O-])C(=O)O (stereo not drawn)
inactive: dose: 25.0 mg/kg/injection, schedule: Q04DX003 (ip), vehicle: Klucel (hydroxypropylcellulose) (HPC) 99 % of control | dose: 50.0 mg/kg/injection, schedule: Q04DX003 (ip), vehicle: Klucel (hydroxypropylcellulose) (HPC) 100 % of control | dose: 100.0 mg/kg/injection, schedule: Q04DX003 (ip), vehicle: Klucel (hydroxypropylcellulose) (HPC) 89 % of control | dose: 200.0 mg/kg/injection, schedule: Q04DX003 (ip), vehicle: Klucel (hydroxypropylcellulose) (HPC) 99 % of control

CN(C)CCC[Si]1(C)c2ccccc2CCc2ccccc21
inactive: dose: 25.0 mg/kg/injection, schedule: Q04DX003 (ip), vehicle: saline 104 % of control | dose: 50.0 mg/kg/injection, schedule: Q04DX003 (ip), vehicle: saline 105 % of control | dose: 100.0 mg/kg/injection, schedule: Q04DX003 (ip), vehicle: saline 109 % of control

CCCCCCCC[N+]1([O-])CCCCC1
inactive: dose: 50.0 mg/kg/injection, schedule: Q01DX009 (ip), vehicle: saline 97 % of control | dose: 100.0 mg/kg/injection, schedule: Q01DX009 (ip), vehicle: saline 102 % of control

COC1(OC)C(c2ccc([N+](=O)[O-])cc2)C(C#N)(C#N)C1(OC)OC (stereo not drawn)
inactive: [4] 100 % of control | [5] 97 % of control | dose: 240.0 mg/kg/injection, schedule: Q01DX005 (ip), vehicle: Klucel (hydroxypropylcellulose) (HPC) 99 % of control

Clc1ccc(Cl)nn1
inactive: [6] 97 % of control | [7] 100 % of control | [8] 100 % of control

CCOC(=O)Cc1c(C)noc1OC
inactive: dose: 25.0 mg/kg/injection, schedule: Q01DX005 (ip), vehicle: saline with Tween-80 106 % of control | [9] 97 % of control | [10] 99 % of control | [11] 97 % of control

CC(C)=CCC(OC(=O)CC(C)(C)O)C1=CC(=O)c2c(O)ccc(O)c2C1=O (stereo not drawn)
inactive: dose: 18.75 mg/kg/injection, schedule: Q01DX005 (ip), vehicle: Klucel (hydroxypropylcellulose) (HPC) 90 % of control | dose: 37.5 mg/kg/injection, schedule: Q01DX005 (ip), vehicle: Klucel (hydroxypropylcellulose) (HPC) 100 % of control

CCCCCCCCc1c(C)nc(N)[nH]c1=O
inactive: [1] 109 % of control | [2] 94 % of control | [3] 88 % of control

COc1cccc2c1C(CCCC(=O)O)CCC2 (stereo not drawn)
inactive: [12] 101 % of control | [13] 104 % of control | [14] 104 % of control

CC(C#N)(Cc1ccccc1)Nc1ccccc1 (stereo not drawn)
inactive: [6] 95 % of control | [7] 90 % of control | [8] 95 % of control

O=C(NC(Cc1ccccc1)C(=O)NC(Cc1ccc(O)cc1)C(=O)O)OCc1ccccc1 (stereo not drawn) (Cbz-Phe-Tyr-OH; configuration not given here)
inactive: dose: 50.0 mg/kg/injection, schedule: Q01DX005 (ip), vehicle: saline + Tween-80 + alcohol 97 % of control | dose: 100.0 mg/kg/injection, schedule: Q01DX005 (ip), vehicle: saline + Tween-80 + alcohol 95 % of control | dose: 200.0 mg/kg/injection, schedule: Q01DX005 (ip), vehicle: saline + Tween-80 + alcohol 96 % of control

COCCO[Si](OCCOC)(OCCOC)OCCOC
inactive: [15] 99 % of control | [16] 87 % of control

O=C1c2ccccc2C(=O)N1c1cccc(CBr)c1
inactive: dose: 12.5 mg/kg/injection, schedule: Q01DX005 (ip), vehicle: Klucel (hydroxypropylcellulose) (HPC) 102 % of control | [17] 114 % of control | [12] 113 % of control

C=C=CN1C(C)=CC(=C2C(=O)c3ccccc3C2=O)C=C1C
inactive: [17] 99 % of control and 97 % of control | [12] 104 % of control and 92 % of control and 96 % of control | [4] 87 % of control | [13] 117 % of control and 96 % of control and 97 % of control | [5] 97 % of control | [14] 106 % of control and 93 % of control

CC(=O)OC1CCC2(C)C(=CCC3C2CCC2(C)C3CC3C(c4ccccc4)=NC(c4ccccc4)C32C(C)=O)C1 (stereo not drawn)
inactive: [18] 93 % of control | dose: 100.0 mg/kg/injection, schedule: Q04DX002 (ip), vehicle: saline with Tween-80 108 % of control | [19] 91 % of control | dose: 200.0 mg/kg/injection, schedule: Q04DX002 (ip), vehicle: saline with Tween-80 100 % of control | [20] 90 % of control | dose: 400.0 mg/kg/injection, schedule: Q04DX002 (ip), vehicle: saline with Tween-80 105 % of control

COc1cccc(/C=C2/C(=O)N(Cc3ccco3)SC2=S)c1OC
inactive: [15] 97 % of control | [16] 95 % of control | [21] 92 % of control

CCCC(=O)NN(Cn1c(=S)sc2ccccc21)Cn1c(=S)sc2ccccc21
inactive: [12] 101 % of control | [13] 90 % of control | [14] 93 % of control

Cc1[nH]ccc(=O)c1OC(=O)C12CC3CC(CC(C3)C1)C2
inactive: [12] 94 % of control and 98 % of control | [13] 91 % of control and 97 % of control | [14] 101 % of control and 95 % of control | dose: 400.0 mg/kg/injection, schedule: Q01DX005 (ip), vehicle: Klucel (hydroxypropylcellulose) (HPC) 103 % of control and 98 % of control

Nc1nnnn1-n1cccc1
inactive: [9] 103 % of control | [10] 103 % of control | [11] 103 % of control

CC(=O)ON1C(=O)C2C3C=CC(O3)C2C1=O (stereo not drawn)
inactive: dose: 3.13 mg/kg/injection, schedule: Q01DX009 (ip), vehicle: water 103 % of control | dose: 6.25 mg/kg/injection, schedule: Q01DX009 (ip), vehicle: water 112 % of control | dose: 12.5 mg/kg/injection, schedule: Q01DX009 (ip), vehicle: water 100 % of control | dose: 25.0 mg/kg/injection, schedule: Q01DX009 (ip), vehicle: water 102 % of control | dose: 50.0 mg/kg/injection, schedule: Q01DX009 (ip), vehicle: water 93 % of control

Cc1cc(N(C)C)nc2cc(N(C)C)ccc12
inactive: dose: 12.5 mg/kg/injection, schedule: Q01DX009 (ip), vehicle: saline with Tween-80 93 % of control | dose: 25.0 mg/kg/injection, schedule: Q01DX009 (ip), vehicle: saline with Tween-80 103 % of control | [6] 95 % of control and 98 % of control

CCCCCCCCCCCCCCCCOC(=O)c1ccc(O)cc1
inactive: [15] 95 % of control | [16] 92 % of control | [21] 103 % of control

CCCCC(CC)OC(=O)c1cccc(C(=O)O)c1 (stereo not drawn)
inactive: [18] 115 % of control | [19] 97 % of control

O=C1c2ccccc2OC2CCON12 (stereo not drawn)
inactive: [15] 100 % of control | [16] 100 % of control | [21] 116 % of control

COC1=C(OC)C(=O)C2=C(OCCCO2)C1=O
inactive: dose: 60.0 mg/kg/injection, schedule: Q01DX001 (ip), vehicle: saline with Tween-80 105 % of control | [19] 105 % of control | [20] 101 % of control

CCOC(=O)c1csc(-c2ccc(COC(=O)c3ccccc3)o2)n1
inactive: [9] 100 % of control | [10] 96 % of control | [11] 89 % of control

O=C(O)COc1ccccc1P(=O)(c1ccccc1)c1ccccc1
inactive: [12] 101 % of control | [13] 102 % of control | [14] 103 % of control
